Assay results as given in patent US12169166B2, “Fluorogenic cyanine compounds for detecting nucleic acids” (AAT Bioquest, Inc., priority 2021, dated 2024).
Entries after “also recorded” stand apart in the source; their conditions may differ.

Legend:
Calf thymus DNA [1] = assay: DNA responses in solution (fluorescence vs DNA concentration); assay type: binding; settings: Tris Buffer pH=8.0, serial DNA dilutions, microtiter plate reader (FIG. 3)
Method: The fluorescence intensities of Compound 5 are measured in the presence of serial dilutions of a DNA sample (0, 3.12, 6.25, 12.5, 25, 50, 100, 1000 ng/ml).
The fluorescence of a cyanine compound in 100 μL of Tris Buffer (pH=8.0) are measured in the presence of 0, 0.21, 0.62, 1.85, 5.6, 16.7, and 50 μg/ml final concentrations of Calf thymus DNA with a microtiter plate reader. The fluorescence is plotted against DNA concentration.

S. typhimurium = assay: Mutagenicity test with S9 liver extract, colony count; assay type: cell-based; settings: 0.2, 1 and 5 ug/plate, 48 hours at 37° C. (FIG. 8)
Method: Mutagenicity tests are performed as described in Example 23.
Tubes of top agar are liquified and cooled to 55-60° C. 0.3 mL of histidine/biotin stock (Presque Isle Cultures) is added alongside 20 uL of S9 liver extract. (Sigma). To the top agar tubes 0.1 mL of S. typhimurium (Grown overnight at 37° C. in TSB culture) is added with 1 mL serological pipette. The mixture is thoroughly mixed by vortexing at low speed. The culture mixture is poured into the plates of the glucose-minimal salts agar plates. With the sterile loops, a disk on its edge is placed near the center of the plate. A serial concentrations of cyanine compounds (0.2, 1 and 5 ug/plate) are added to saturate the disk with a sterile Pasteur pipette. Sterile water is used with the same volume as a negative control. The plates are incubated for 48 hours at 37° C., and the colonies are counted near the disk.

[2] = system: pGL3 Control vector (Promega) DNA; assay: Pre-cast DNA gel staining; assay type: binding; settings: 0.9% agarose, dye 1 μg/ml; for sensitivity for detecting DNA on gel compared with TO, pre-cast gel staining: same conditions as TO; for amount of DNA clearly detected per lane, pre-cast gel staining: 300 nm UV transilluminator (FIG. 4)
Method: (§1) FIGS. 4A-4B show a representation of pre-cast DNA gel staining with Compound 5 versus Thiazole Orange. Serial dilutions of a DNA sample (86, 43, 21.5, 10.7, 5.3, 2.6, 1.3, 0.5 ng/lane) are detected with Thiazole Orange or Compound 5. Compound 5 can clearly detect 5.3 ng DNA while TO can only detect 43 ng.
An agarose gel solution (0.9% agarose) is prepared following a standard protocol (J. Roskams et al., Lab Ref A Handbook of Recipes, Reagents, and Other Reference Tools for Use at the Bench, Cold Spring Harbor Laboratory Press, Cold Spring Harbor, N.Y., 2002). A stock solution of a cyanine dye in DMSO is prepared. An aliquot of the stock solution of dye is added to the gel solution, while it is hot, resulting in an effective working concentration of the dye (1 μg/ml). The resulting solution is thoroughly mixed by swirling. The resulting gel solution is poured onto a gel slab to cast the gel. Serial two-fold dilutions of pGL3 Control vector (Promega) are made and the resulting DNA samples are loaded onto the gel in eight lanes from left to right with a loading of 86, 43, 21.5, 10.7, 5.3, 2.6, 1.3, 0.5 ng/lane, respectively. The DNA samples are electrophoretically separated in 1×TAE buffer using a standard protocol. The resulting gel is then viewed using a UV transilluminator with 300 nm excitation. Photographs of the illuminated gels are taken with an EB filter.

HeLa cells [3] = assay: Cellular cytotoxicity (cell viability, WST kit); assay type: cell-based; settings: 0-100 ug/mL dye, 24 hours (FIG. 7)
Method: HeLa cells are plated in a 96-well plate (100 μL volume). Next day, to each 100 ul of cells is added 100 ul cyanine solution to make a series of cell samples with the final cyanine dye concentrations of 0, 0.31, 0.62, 1.6, 3.12, 6.25, 12.5, 25, 50, 100 ug/mL respectively. The cell viabilities are measured and plotted for each sample.
HeLa cells are plated in a 96-well plate (100 μL volume). Next day, to each 100 ul of cells is added 100 ul cyanine solution to make a serial cell samples with the final cyanine dye concentrations of 0, 0.31, 0.62, 1.6, 3.12, 6.25, 12.5, 25, 50, 100 ug/mL respectively (total volume is 200 μL for each sample), The cells are incubated in the cyanine-containing media for 24 hours. The cell viabilities are measured with Cell Meter™ Colorimetric WST-5′ Cell Quantification Kit (AAT Bioquest) according to the product instruction.

Calf thymus DNA [4] = assay: Fluorescence emission spectra in the presence or absence of DNA; assay type: binding; settings: dye 5 ug/ml, DNA 3 ug/ml, Tris Buffer pH=8.0 (FIG. 2)
Method: Absorption and fluorescence spectra of cyanine compounds are measured in the presence or absence of DNA in Tris buffer (pH=8.0). […]

[5] = system: pGL3 Control vector (Promega) DNA; assay: Post-DNA gel staining; assay type: binding; settings: 0.9% agarose, dye 1 ug/ml, same conditions as TO
Method: as §1, with “FIGS. 5A-5B” for “FIGS. 4A-4B”, “of post-DNA” for “of pre-cast DNA”, “detect 1.3” for “detect 5.3”, “detect 21.5” for “detect 43”
Agarose gels (0.9% agarose) are prepared following a standard protocol (J. Roskams et al., Lab Ref A Handbook of Recipes, Reagents, and Other Reverence Tools for Use at the Bench, Cold Spring Harbor Laboratory Press, Cold Spring Harbor, N.Y., 2002). Serial two-fold dilutions of pGL3 Control vector (Promega) are made and the resulting DNA samples are loaded onto an agarose gel in eight lanes from left to right with a loading of 86, 43, 21.5, 10.7, 5.3, 2.6, 1.3, 0.5 ng/lane, respectively. The DNA samples are electrophoretically separated in 1×TAE buffer using a standard protocol. A stock solution of a cyanine dye in DMSO at about 12 mM concentration is prepared. The stock solution of dye is diluted using an appropriate aqueous solvent to provide a staining solution with an appropriate effective working concentration of the dye (1 ug/ml). The agarose gel is submerged in the staining solution for approximately 30 minutes to stain the gel. The resulting gel is then viewed using a UV transilluminator with 300 nm excitation. […]

HeLa cells [6] = assay: Cellular nucleic acid staining of live and fixed cells; assay type: cell-based; settings: dye 1 μg/ml in PBS, live or fixed HeLa cells, 30 min, fluorescence microscope (FIG. 6)
Method: A cyanine dye (1 μg/ml) in PBS buffer is incubated with live or fixed HeLa cells in 96-well plate for 30 min respectively. The fluorescence image of cells is taken with a fluorescence microscope.
A cyanine dye (1 μg/ml) in PBS buffer (prepared from 1 mM DMSO stock solution) is incubated with live and fixed HeLa cells in 96-well plate for 30 min respectively.

SMILES | fluorescence signal in response to increasing DNA concentrations, compared with TO (Calf thymus DNA [1]) | mutagenicity compared with SYBR Green (S. typhimurium) | sensitivity for detecting DNA on gel compared with TO, pre-cast gel staining [2] | cell toxicity compared with SYBR Green (HeLa cells [3]) | fluorescence enhancement in the presence vs absence of DNA, compared with TO (Calf thymus DNA [4]) | sensitivity for detecting DNA on gel compared with TO, post-gel staining [5] | live cell permeability (HeLa cells [6]) | amount of DNA clearly detected per lane, pre-cast gel staining [2]
CC(=O)NCCCCN1C(c2ccccc2)=C/C(=C\c2sc3ccccc3[n+]2CCCCNC(C)=O)c2ccccc21 [Compound 6] | stronger fluorescence signals than TO | significantly lower mutagenicity than SYBR Green; also recorded: much lower mutagenicity than SYBR Green | significantly higher sensitivity for detecting DNA on a gel than TO; also recorded: much higher sensitivity for detecting DNA on gel than TO | lower cell toxicity compared to SYBR Green; also recorded: much lower cell toxicity than SYBR Green | stronger fluorescence enhancements than TO | significantly higher sensitivity for detecting DNA on gel than TO; also recorded: much higher sensitivity for detecting DNA on gel than TO | cell impermeability | 
NCCCCN1C(c2ccccc2)=C/C(=C\c2sc3ccccc3[n+]2CCCCN)c2ccccc21 [Compound 5] | significantly higher fluorescence signals than Thiazole orange (TO); also recorded: stronger fluorescence signals than TO | significantly lower mutagenicity than SYBR Green; also recorded: much low mutagenicity than SYBR Green |  | significantly lower cell toxicity than SYBR Green; also recorded: much lower cell toxicity than SYBR Green | stronger fluorescence enhancements than TO |  | live cell impermeant | 5.3 ng
CN1/C(=C/c2cc[n+](C)c3ccccc23)Sc2ccccc21 [TO, Thiazole Orange, reference compound] |  |  |  |  |  |  | can readily penetrate the cells | 43 ng
OCCCCN1C(c2ccccc2)=C/C(=C\c2sc3ccccc3[n+]2CCCCO)c2ccccc21 [Compound 4] | stronger fluorescence signals than TO; also recorded: linearly responded to the DNA concentrations with better sensitivity than TO | significantly lower mutagenicity than SYBR Green; also recorded: much lower mutagenicity than SYBR Green | significantly higher sensitivity for detecting DNA on a gel than TO; also recorded: much higher sensitivity for detecting DNA on gel than TO | lower cell toxicity compared to SYBR Green; also recorded: much lower cell toxicity than SYBR Green | stronger fluorescence enhancements than TO | significantly higher sensitivity for detecting DNA on gel than TO; also recorded: much higher sensitivity for detecting DNA on gel than TO | cell impermeability | 
